Test: excess molar enthalpy (molar enthalpy of mixing); xn = mol fraction of the nth substance listed
Settings: 101.3 kPa, Liquid, Isoperibol calorimetry

CCOC(=O)C(=O)OCC [diethyl ethanedioate] + CC(C)O
excess molar enthalpy [kcal/mol]
Settings | 288.2 K | 298.2 K | 313.2 K | 328.2 K
x1 = 0.0492 | 0.124 | 0.131 | 0.14 | 0.145
x1 = 0.0997 | 0.225 | 0.247 | 0.269 | 0.287
x1 = 0.1514 | 0.3023 | 0.332 | 0.3647 | 0.3903
x1 = 0.2009 | 0.3566 | 0.3936 | 0.4376 | 0.4658
x1 = 0.2507 | 0.4092 | 0.4541 | 0.5005 | 0.5368
x1 = 0.3005 | 0.4379 | 0.4852 | 0.5394 | 0.5741
x1 = 0.3499 | 0.4682 | 0.517 | 0.5717 | 0.6092
x1 = 0.3987 | 0.4837 | 0.5344 | 0.5896 | 0.635
x1 = 0.4504 | 0.4962 | 0.5461 | 0.6052 | 0.6417
x1 = 0.501 | 0.4976 | 0.5447 | 0.6033 | 0.6405
x1 = 0.55 | 0.4995 | 0.5442 | 0.5942 | 0.6317
x1 = 0.6018 | 0.4876 | 0.5284 | 0.5772 | 0.6126
x1 = 0.6515 | 0.4696 | 0.5072 | 0.5485 | 0.5774
x1 = 0.6985 | 0.4419 | 0.4763 | 0.5143 | 0.5385
x1 = 0.7478 | 0.4046 | 0.4319 | 0.4673 | 0.4847
x1 = 0.7996 | 0.354 | 0.3762 | 0.3984 | 0.4166
x1 = 0.8479 | 0.2935 | 0.308 | 0.3279 | 0.3356
x1 = 0.8985 | 0.217 | 0.223 | 0.238 | 0.235
x1 = 0.9515 | 0.118 | 0.112 | 0.114 | 0.121

CCOC(=O)C(=O)OCC [diethyl ethanedioate] + CO
excess molar enthalpy [kcal/mol]
Settings | 288.2 K | 298.2 K | 313.2 K | 328.2 K
x1 = 0.0493 | – | 0.0523 | 0.06 | 0.0674
x1 = 0.0494 | 0.0464 | – | – | –
x1 = 0.1004 | – | 0.101 | 0.12 | 0.139
x1 = 0.1005 | 0.0887 | – | – | –
x1 = 0.1593 | – | 0.15 | 0.176 | 0.204
x1 = 0.2003 | – | 0.1771 | 0.2096 | 0.2407
x1 = 0.2004 | 0.156 | – | – | –
x1 = 0.2505 | – | 0.207 | 0.2419 | 0.2789
x1 = 0.2507 | 0.1845 | – | – | –
x1 = 0.299 | – | 0.2323 | 0.2725 | 0.3126
x1 = 0.2991 | 0.2072 | – | – | –
x1 = 0.3509 | – | 0.2545 | 0.2978 | 0.3406
x1 = 0.3511 | 0.2259 | – | – | –
x1 = 0.4017 | – | 0.2706 | 0.316 | 0.3616
x1 = 0.4019 | 0.2419 | – | – | –
x1 = 0.4494 | – | 0.2823 | 0.3284 | 0.3731
x1 = 0.4496 | 0.2522 | – | – | –
x1 = 0.4973 | – | 0.2909 | 0.3387 | 0.3843
x1 = 0.4975 | 0.261 | – | – | –
x1 = 0.5507 | – | 0.2942 | 0.3399 | 0.3843
x1 = 0.5509 | 0.2658 | – | – | –
x1 = 0.5967 | – | 0.2935 | 0.3377 | 0.3798
x1 = 0.5969 | 0.2651 | – | – | –
x1 = 0.6473 | – | 0.2856 | 0.3274 | 0.3633
x1 = 0.6475 | 0.2605 | – | – | –
x1 = 0.7032 | – | 0.2694 | 0.3112 | 0.3389
x1 = 0.7033 | 0.2467 | – | – | –
x1 = 0.7468 | – | 0.2588 | 0.2911 | 0.3105
x1 = 0.7469 | 0.2333 | – | – | –
x1 = 0.8037 | – | 0.238 | 0.2593 | 0.2641
x1 = 0.8039 | 0.2072 | – | – | –
x1 = 0.8449 | – | 0.209 | 0.2285 | 0.2216
x1 = 0.845 | 0.18 | – | – | –
x1 = 0.9004 | – | 0.152 | 0.156 | 0.147
x1 = 0.9005 | 0.127 | – | – | –
x1 = 0.9484 | 0.0676 | 0.0887 | 0.0944 | 0.0844

CCOC(=O)C(=O)OCC [diethyl ethanedioate] + CCO
excess molar enthalpy [kcal/mol]
Settings | 288.2 K | 298.2 K | 313.2 K | 328.2 K
x1 = 0.0495 | 0.0698 | 0.0837 | 0.0949 | 0.104
x1 = 0.0994 | 0.135 | 0.161 | 0.185 | 0.205
x1 = 0.1508 | 0.194 | 0.222 | 0.257 | 0.2875
x1 = 0.2004 | 0.237 | 0.2679 | 0.3093 | 0.3468
x1 = 0.2497 | 0.2763 | 0.3083 | 0.3564 | 0.4006
x1 = 0.3009 | 0.3045 | 0.3411 | 0.3929 | 0.4379
x1 = 0.3502 | 0.3272 | 0.3654 | 0.4209 | 0.4706
x1 = 0.4003 | 0.3466 | 0.3846 | 0.4419 | 0.4933
x1 = 0.4508 | 0.3566 | 0.3989 | 0.4582 | 0.5081
x1 = 0.5011 | 0.3642 | 0.4051 | 0.463 | 0.5127
x1 = 0.5506 | 0.365 | 0.4051 | 0.4613 | 0.5112
x1 = 0.5986 | 0.3611 | 0.4001 | 0.4541 | 0.499
x1 = 0.6502 | 0.3511 | 0.385 | 0.4362 | 0.4775
x1 = 0.6996 | 0.3325 | 0.3638 | 0.4101 | 0.4474
x1 = 0.7525 | 0.3057 | 0.332 | 0.3731 | 0.4001
x1 = 0.8021 | 0.2713 | 0.2935 | 0.325 | 0.3456
x1 = 0.8473 | 0.2268 | 0.2481 | 0.2691 | 0.2878
x1 = 0.9034 | 0.164 | 0.172 | 0.19 | 0.194
x1 = 0.946 | 0.0997 | 0.101 | 0.116 | 0.116

CCOC(=O)C(=O)OCC [diethyl ethanedioate] + CCCO
excess molar enthalpy [kcal/mol]
Settings | 288.2 K | 298.2 K | 313.2 K | 328.2 K
x1 = 0.0505 | 0.106 | 0.113 | 0.123 | 0.135
x1 = 0.1001 | 0.187 | 0.202 | 0.232 | 0.249
x1 = 0.1509 | 0.2524 | 0.2758 | 0.3152 | 0.3415
x1 = 0.1998 | 0.3033 | 0.3315 | 0.3776 | 0.4118
x1 = 0.2491 | 0.3415 | 0.3795 | 0.4328 | 0.4675
x1 = 0.2986 | 0.3755 | 0.4118 | 0.4696 | 0.5146
x1 = 0.3478 | 0.3996 | 0.4441 | 0.5043 | 0.5516
x1 = 0.4003 | 0.4192 | 0.4656 | 0.5284 | 0.5717
x1 = 0.4482 | 0.4302 | 0.4749 | 0.5382 | 0.5858
x1 = 0.499 | 0.4395 | 0.484 | 0.5447 | 0.5906
x1 = 0.5484 | 0.4371 | 0.4802 | 0.5392 | 0.586
x1 = 0.6007 | 0.4302 | 0.4732 | 0.5249 | 0.5648
x1 = 0.6509 | 0.4149 | 0.4527 | 0.5041 | 0.5368
x1 = 0.6986 | 0.3924 | 0.4247 | 0.4708 | 0.5038
x1 = 0.7487 | 0.3609 | 0.3877 | 0.4295 | 0.4517
x1 = 0.8015 | 0.3167 | 0.3403 | 0.3671 | 0.3853
x1 = 0.8509 | 0.2631 | 0.281 | 0.2988 | 0.3112
x1 = 0.9028 | 0.192 | 0.196 | 0.21 | 0.217
x1 = 0.9503 | 0.101 | 0.108 | 0.109 | 0.108
